Common to all, as to format: functional
The target in test [1] is T1, Neuropeptides B/W receptor type 1 (Homo sapiens, UniProt P48145).
T1 sequence (P48145 whole entry): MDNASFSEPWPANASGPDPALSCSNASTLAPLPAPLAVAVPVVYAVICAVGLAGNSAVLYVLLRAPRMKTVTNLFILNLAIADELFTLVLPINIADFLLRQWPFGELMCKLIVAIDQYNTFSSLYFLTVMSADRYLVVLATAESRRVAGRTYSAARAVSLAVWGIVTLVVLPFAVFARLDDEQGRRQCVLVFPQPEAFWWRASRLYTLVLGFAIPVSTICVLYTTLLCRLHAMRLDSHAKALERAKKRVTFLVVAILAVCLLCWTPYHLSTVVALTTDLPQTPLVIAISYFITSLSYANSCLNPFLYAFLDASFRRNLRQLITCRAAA
The experiment in a line: GPR7 antagonist potency, late-stage follow-up, cell-based, fluorescence, dose response, set 5 (AID 588566).

Test [2] deals with T2, Melanin-concentrating hormone receptor 1 (Homo sapiens, UniProt Q99705). The experiment in a line: Late-stage fluorescence-based counterscreen for antagonists of the G-protein coupled receptor 7 (GPR7): cell-based dose response assay to identify antagonists of the melanin-concentrating hormone receptor 1 (MCHR1) Set 5.
Test [3] has as its target T3, Apoptotic protease-activating factor 1 (Homo sapiens, UniProt O14727).
T3 sequence (O14727 whole entry): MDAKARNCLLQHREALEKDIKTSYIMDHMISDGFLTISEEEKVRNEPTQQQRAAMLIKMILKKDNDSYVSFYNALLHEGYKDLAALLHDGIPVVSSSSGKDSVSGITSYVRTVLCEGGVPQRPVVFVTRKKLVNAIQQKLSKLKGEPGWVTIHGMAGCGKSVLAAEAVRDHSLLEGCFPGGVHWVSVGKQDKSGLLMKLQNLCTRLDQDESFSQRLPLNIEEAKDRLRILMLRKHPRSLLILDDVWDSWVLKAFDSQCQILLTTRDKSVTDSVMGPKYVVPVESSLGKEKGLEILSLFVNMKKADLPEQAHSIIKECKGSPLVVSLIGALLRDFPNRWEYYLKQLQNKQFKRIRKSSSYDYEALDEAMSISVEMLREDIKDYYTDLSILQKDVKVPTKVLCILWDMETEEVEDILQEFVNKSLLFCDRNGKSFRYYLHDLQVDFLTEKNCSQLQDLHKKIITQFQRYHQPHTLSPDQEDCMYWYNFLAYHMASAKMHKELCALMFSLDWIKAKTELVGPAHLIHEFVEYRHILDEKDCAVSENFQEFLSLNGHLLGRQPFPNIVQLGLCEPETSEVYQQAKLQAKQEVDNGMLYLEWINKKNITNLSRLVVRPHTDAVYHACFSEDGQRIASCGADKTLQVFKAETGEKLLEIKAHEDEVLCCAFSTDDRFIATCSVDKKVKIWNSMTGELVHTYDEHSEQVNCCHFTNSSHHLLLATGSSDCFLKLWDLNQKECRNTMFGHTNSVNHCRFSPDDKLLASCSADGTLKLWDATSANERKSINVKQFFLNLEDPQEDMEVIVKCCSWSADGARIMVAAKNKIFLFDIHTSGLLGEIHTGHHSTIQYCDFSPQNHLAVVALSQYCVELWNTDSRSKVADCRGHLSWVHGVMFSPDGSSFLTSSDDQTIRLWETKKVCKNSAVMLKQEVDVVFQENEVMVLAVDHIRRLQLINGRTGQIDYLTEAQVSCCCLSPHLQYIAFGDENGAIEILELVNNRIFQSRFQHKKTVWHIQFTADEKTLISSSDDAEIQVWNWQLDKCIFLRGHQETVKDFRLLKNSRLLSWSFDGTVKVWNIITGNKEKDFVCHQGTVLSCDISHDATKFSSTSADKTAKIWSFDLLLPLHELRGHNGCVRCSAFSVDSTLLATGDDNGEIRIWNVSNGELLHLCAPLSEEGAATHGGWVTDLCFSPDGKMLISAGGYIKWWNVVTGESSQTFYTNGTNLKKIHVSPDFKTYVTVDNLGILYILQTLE
Description: SAR analysis of small molecule inhibitors of Apaf-1 in a Fluorescent assay. To be noted: read-out: IC50_Mean.

The target in test [4] is Macrophage colony-stimulating factor 1 receptor (Homo sapiens, UniProt P07333).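 Further: value comes from the Navigating the Kinome screening panel, CSF1R member.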
Test [5] has as its target Cyclin-dependent kinase 9 (Homo sapiens, UniProt P50750).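 Further: value from the CDK9 entry of a kinome-spanning kinase panel.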
For the next test, the target named is Activated CDC42 kinase 1 (Homo sapiens, UniProt Q07912). The experiment in a line: Navigating the Kinome. Panel member name: ACK1.
The target of test [6] is Mitogen-activated protein kinase kinase kinase kinase 4 (Homo sapiens, UniProt O95819).
Another test has as its target Focal adhesion kinase 1 (Homo sapiens, UniProt Q05397).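 Further: measured as one member of a kinome panel.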
Test [7] concerns the target Platelet-derived growth factor receptor beta (Homo sapiens, UniProt P09619).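 Further: value comes from a kinome panel, with PDGFRB tested as one panel member.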
For test [8], the target named is Dual specificity tyrosine-phosphorylation-regulated kinase 1A (Homo sapiens, UniProt Q13627).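 Further: measured against DYRK1A as one member of a broad kinome profiling panel.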
Test [9] has as its target cAMP-dependent protein kinase catalytic subunit alpha (Homo sapiens, UniProt P17612).
Test [10] deals with Dual specificity mitogen-activated protein kinase kinase 2 (Homo sapiens, UniProt P36507). Description: Navigating the Kinome. Panel member name: MAP2K2.
Test [11] addresses Mitogen-activated protein kinase kinase kinase kinase 2 (Homo sapiens, UniProt Q12851).
Test [12] addresses Vascular endothelial growth factor receptor 1 (Homo sapiens, UniProt P17948).
The target of test [13] is Calcium/calmodulin-dependent protein kinase type II subunit alpha (Homo sapiens, UniProt Q9UQM7). Description: Navigating the Kinome. Panel member name: CAMK2A.
For test [14], the target named is Protein kinase C theta type (Homo sapiens, UniProt Q04759). The experiment in a line: Navigating the Kinome. Panel member name: PRKCQ.
Test [15] concerns the target Vascular endothelial growth factor receptor 2 (Homo sapiens, UniProt P35968).
The target of test [16] is Leucine-rich repeat serine/threonine-protein kinase 2 (Homo sapiens, UniProt Q5S007).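 Further: value from a broad kinome-wide panel profiling study in which LRRK2 was one of the kinases tested.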
The target in test [17] is cAMP-dependent protein kinase catalytic subunit PRKX (Homo sapiens, UniProt P51817).
For test [18], the target named is Death-associated protein kinase 3 (Homo sapiens, UniProt O43293).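 Further: measured as one member of a kinome-wide profiling panel.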
The target of test [19] is Cyclin-dependent kinase 7 (Homo sapiens, UniProt P50613).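 Further: value comes from a kinome-wide kinase profiling panel in which CDK7 is one member.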
The target of test [20] is Dual specificity protein kinase CLK2 (Homo sapiens, UniProt P49760).
The target of another test is Aurora kinase A (Homo sapiens, UniProt O14965).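 Further: value from the Navigating the Kinome kinase panel profiling, panel entry STK6.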
Test [21] has as its target Dual specificity mitogen-activated protein kinase kinase 1 (Homo sapiens, UniProt Q02750). Description: Navigating the Kinome. Panel member name: MAP2K1.
Test [22] has as its target Rho-associated protein kinase 1 (Homo sapiens, UniProt Q13464).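 Further: measured within a broad kinome-wide panel profiling many kinases.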
The target in test [23] is Casein kinase I isoform alpha (Homo sapiens, UniProt P48729).
Test [24] has as its target Tyrosine-protein kinase ABL1 (Homo sapiens, UniProt P00519).
The target of test [25] is Fibroblast growth factor receptor 1 (Homo sapiens, UniProt P11362).
The target in test [26] is Serine/threonine-protein kinase D3 (Homo sapiens, UniProt O94806).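 Further: determined within a kinase panel screen, with PRKCN as the panel member.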
Test [27] has as its target Tyrosine-protein kinase receptor TYRO3 (Homo sapiens, UniProt Q06418).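 Further: TYRO3 value obtained as one member of a kinome-wide profiling panel.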
The target of test [28] is Dual specificity protein kinase CLK4 (Homo sapiens, UniProt Q9HAZ1).
Test [29] addresses Leukocyte tyrosine kinase receptor (Homo sapiens, UniProt P29376). Description: Navigating the Kinome. Panel member name: LTK.
In test [30] the target is Macrophage-stimulating protein receptor (Homo sapiens, UniProt Q04912). The experiment in a line: Navigating the Kinome. Panel member name: MST1R.
Test [31] addresses Cyclin-dependent kinase 5 (Homo sapiens, UniProt Q00535).
Test [32] has as its target ALK tyrosine kinase receptor (Homo sapiens, UniProt Q9UM73).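 Further: ALK tested as one member of a kinase panel screen.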
The target of test [33] is Dual specificity tyrosine-phosphorylation-regulated kinase 1B (Homo sapiens, UniProt Q9Y463). The experiment in a line: Navigating the Kinome. Panel member name: DYRK1B.
For test [34], the target named is Glycogen synthase kinase-3 alpha (Homo sapiens, UniProt P49840).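 Further: GSK3A result taken from a broad kinome-wide kinase panel.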
Another test addresses Activin receptor type-1 (Homo sapiens, UniProt Q04771). The experiment in a line: Navigating the Kinome. Panel member name: ACVR1.
The target in test [35] is Glycogen synthase kinase-3 beta (Homo sapiens, UniProt P49841).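 Further: value comes from a broad kinome profiling panel, with GSK3B as the panel member.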
Test [36] addresses Hepatocyte growth factor receptor (Homo sapiens, UniProt P08581).
Test [37] addresses T2, Melanin-concentrating hormone receptor 1. The experiment in a line: Late-stage fluorescence-based counterscreen for antagonists of the G-protein coupled receptor 7 (GPR7): cell-based dose response assay to identify antagonists of the melanin-concentrating hormone receptor 1 (MCHR1) Set 6.
For test [38], the target named is T1, Neuropeptides B/W receptor type 1. The experiment in a line: GPR7 antagonist potency, late-stage follow-up, cell-based, fluorescence, dose response, set 6 (AID 588583).

Activity calls are given as the source filed them. Where only a bound is given, the exact number is not on record here.

T2 sequence (Q99705 whole entry): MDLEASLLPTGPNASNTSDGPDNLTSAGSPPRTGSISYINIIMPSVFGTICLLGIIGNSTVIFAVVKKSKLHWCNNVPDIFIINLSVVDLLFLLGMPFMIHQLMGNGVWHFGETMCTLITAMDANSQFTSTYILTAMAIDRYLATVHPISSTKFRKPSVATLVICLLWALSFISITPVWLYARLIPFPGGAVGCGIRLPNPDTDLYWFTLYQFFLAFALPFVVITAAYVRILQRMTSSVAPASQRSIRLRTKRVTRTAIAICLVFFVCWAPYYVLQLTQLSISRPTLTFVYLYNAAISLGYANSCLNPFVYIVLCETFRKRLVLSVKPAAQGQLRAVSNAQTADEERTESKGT
Sequence of Platelet-derived growth factor receptor beta (P09619 whole entry): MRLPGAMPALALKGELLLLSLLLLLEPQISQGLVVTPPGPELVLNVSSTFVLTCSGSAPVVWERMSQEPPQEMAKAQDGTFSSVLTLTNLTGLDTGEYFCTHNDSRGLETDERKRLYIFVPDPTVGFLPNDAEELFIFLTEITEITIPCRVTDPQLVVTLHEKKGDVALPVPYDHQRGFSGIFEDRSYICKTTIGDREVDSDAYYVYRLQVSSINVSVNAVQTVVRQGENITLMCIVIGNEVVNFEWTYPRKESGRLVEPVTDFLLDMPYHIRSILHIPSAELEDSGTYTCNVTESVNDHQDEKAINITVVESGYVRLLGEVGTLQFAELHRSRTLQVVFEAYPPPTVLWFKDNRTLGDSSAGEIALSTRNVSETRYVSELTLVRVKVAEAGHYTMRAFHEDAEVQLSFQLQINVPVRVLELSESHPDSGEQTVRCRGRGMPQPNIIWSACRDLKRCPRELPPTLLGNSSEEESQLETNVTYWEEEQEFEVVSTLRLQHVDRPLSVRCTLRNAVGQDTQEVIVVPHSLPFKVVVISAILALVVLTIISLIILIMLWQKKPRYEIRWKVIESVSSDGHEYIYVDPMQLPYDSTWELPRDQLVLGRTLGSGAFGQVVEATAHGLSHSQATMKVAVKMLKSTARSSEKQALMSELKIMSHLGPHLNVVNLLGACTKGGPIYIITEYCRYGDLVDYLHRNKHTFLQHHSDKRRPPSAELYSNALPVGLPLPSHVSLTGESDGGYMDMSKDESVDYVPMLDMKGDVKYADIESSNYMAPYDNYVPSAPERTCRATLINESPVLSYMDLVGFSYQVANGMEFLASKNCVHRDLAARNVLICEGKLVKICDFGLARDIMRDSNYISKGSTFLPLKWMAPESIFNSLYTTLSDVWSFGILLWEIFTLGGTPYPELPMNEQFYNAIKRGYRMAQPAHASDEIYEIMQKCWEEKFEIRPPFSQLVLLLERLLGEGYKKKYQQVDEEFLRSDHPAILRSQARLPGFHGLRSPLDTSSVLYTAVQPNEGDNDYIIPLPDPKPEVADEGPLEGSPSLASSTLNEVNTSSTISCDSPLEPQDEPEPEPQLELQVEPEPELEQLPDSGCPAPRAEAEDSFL
Sequence of Vascular endothelial growth factor receptor 2 (P35968 whole entry): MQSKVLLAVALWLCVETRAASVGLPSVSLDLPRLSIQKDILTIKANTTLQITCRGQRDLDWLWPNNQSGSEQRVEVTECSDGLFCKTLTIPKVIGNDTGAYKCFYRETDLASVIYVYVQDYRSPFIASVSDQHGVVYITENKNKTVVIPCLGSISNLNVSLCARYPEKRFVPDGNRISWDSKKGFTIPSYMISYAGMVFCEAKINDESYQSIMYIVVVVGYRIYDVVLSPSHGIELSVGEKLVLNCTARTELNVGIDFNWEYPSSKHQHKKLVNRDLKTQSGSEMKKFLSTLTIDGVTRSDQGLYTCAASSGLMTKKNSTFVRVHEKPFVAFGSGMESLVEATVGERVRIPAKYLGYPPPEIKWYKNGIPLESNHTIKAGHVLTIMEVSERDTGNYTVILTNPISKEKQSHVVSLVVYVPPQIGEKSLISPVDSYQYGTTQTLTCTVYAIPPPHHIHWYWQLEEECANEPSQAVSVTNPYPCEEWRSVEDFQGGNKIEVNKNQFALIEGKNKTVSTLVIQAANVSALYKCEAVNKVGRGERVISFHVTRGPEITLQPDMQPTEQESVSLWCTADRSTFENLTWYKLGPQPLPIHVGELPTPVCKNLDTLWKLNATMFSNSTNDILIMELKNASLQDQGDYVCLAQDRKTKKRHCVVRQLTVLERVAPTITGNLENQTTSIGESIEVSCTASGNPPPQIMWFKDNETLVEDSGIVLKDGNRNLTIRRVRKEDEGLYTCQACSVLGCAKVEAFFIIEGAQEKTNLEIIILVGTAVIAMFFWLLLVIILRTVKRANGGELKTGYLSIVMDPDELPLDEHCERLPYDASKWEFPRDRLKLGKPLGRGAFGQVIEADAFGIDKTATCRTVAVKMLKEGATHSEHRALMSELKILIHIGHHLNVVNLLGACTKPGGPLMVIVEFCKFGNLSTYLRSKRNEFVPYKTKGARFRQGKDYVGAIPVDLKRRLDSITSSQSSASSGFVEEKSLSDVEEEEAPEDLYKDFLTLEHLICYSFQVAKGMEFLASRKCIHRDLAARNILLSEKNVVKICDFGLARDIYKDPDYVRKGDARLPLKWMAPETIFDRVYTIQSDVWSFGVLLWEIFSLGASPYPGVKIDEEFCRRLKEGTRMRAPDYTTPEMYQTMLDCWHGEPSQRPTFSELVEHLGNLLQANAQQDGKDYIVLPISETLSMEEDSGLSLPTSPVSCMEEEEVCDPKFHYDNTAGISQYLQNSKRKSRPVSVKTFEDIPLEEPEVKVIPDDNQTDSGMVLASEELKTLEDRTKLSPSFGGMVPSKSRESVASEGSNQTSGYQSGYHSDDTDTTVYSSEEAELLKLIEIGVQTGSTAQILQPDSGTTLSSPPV
Sequence of Dual specificity tyrosine-phosphorylation-regulated kinase 1B (Q9Y463 whole entry): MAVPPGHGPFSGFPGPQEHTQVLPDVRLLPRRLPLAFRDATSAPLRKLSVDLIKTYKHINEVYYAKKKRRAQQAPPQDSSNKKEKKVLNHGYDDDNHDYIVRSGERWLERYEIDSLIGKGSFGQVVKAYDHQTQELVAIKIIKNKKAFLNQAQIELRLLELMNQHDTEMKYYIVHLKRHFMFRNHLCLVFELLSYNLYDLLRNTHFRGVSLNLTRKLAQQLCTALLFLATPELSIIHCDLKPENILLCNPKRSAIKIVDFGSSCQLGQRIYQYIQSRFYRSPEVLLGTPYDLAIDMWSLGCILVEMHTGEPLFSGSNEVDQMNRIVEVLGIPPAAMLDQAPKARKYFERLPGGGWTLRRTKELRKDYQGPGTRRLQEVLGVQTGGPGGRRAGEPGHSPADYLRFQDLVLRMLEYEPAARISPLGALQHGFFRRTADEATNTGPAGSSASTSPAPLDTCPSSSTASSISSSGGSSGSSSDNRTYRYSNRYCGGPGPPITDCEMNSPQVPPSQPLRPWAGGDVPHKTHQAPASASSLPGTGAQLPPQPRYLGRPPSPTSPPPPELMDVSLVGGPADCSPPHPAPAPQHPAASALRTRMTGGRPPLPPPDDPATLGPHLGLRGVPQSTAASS
Sequence of Fibroblast growth factor receptor 1 (P11362 whole entry): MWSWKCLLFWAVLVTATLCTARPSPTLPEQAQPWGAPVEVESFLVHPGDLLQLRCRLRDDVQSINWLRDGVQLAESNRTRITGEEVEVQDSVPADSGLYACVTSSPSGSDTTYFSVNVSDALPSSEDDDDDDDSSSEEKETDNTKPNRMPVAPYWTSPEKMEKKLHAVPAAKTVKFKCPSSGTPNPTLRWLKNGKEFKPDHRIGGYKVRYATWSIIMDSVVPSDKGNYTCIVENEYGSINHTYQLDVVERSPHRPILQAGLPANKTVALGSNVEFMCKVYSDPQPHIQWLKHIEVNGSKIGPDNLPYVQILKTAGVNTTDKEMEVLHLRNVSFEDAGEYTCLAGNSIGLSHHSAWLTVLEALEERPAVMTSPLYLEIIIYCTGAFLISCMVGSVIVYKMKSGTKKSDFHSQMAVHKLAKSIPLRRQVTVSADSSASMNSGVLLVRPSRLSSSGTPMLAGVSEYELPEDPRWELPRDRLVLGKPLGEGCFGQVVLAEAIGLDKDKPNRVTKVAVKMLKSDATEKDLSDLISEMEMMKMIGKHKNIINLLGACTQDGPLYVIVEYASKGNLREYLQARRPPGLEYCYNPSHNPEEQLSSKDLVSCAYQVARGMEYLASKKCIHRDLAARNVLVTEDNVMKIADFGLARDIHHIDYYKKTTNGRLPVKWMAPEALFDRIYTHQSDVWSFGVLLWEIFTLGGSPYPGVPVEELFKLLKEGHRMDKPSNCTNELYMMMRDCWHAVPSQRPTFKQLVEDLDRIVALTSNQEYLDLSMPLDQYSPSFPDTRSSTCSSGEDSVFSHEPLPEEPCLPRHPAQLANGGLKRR
Sequence of Aurora kinase A (O14965 whole entry): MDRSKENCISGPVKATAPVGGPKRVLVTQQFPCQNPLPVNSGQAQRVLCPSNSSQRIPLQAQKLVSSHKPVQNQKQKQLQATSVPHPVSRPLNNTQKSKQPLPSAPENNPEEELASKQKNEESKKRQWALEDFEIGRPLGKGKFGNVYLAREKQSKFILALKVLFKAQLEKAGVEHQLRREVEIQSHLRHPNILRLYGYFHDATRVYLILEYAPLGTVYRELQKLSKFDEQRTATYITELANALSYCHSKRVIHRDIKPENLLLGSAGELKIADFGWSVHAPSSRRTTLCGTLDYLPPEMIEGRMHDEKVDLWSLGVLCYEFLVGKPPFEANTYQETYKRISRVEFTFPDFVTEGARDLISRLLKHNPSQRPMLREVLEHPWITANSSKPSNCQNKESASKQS
Sequence of Casein kinase I isoform alpha (P48729 whole entry, canonical isoform): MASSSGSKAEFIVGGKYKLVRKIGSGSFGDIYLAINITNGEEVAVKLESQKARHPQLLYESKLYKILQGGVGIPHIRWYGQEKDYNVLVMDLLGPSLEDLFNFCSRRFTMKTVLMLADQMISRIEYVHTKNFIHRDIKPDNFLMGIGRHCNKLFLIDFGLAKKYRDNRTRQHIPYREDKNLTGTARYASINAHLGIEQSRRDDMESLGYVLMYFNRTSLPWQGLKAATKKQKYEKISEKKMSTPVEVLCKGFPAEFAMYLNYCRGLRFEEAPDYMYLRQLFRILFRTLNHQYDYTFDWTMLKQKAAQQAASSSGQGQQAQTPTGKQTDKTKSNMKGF

For the compound `N#CC(c1cccnc1)c1cnn(Cc2cccc3ccccc23)c(=O)c1Cl` (configuration not stated), the IC50 in test [1] is 1.18 µM (active); in test [2] it was 3.67 µM (active).

As for `O=C(Nc1ccc2[nH]c(-c3cccs3)nc2c1)c1cccs1`, the IC50 in [3] was > 100 µM (inactive).

With `Nc1n[nH]c2cccc(-c3ccc(F)cc3)c12`, the inhibition constant Ki (as a rule, the dissociation constant of the complex between target and ligand, obtained from inhibition or displacement) in [4] was 7.94 µM (active); in [5], > 63.1 µM (inactive); at Activated CDC42 kinase 1, 15.8 µM (active); in [6], 20 µM (active); at Focal adhesion kinase 1 it was 20 µM (active); in test [7], 6.31 µM (active). In addition, the inhibitory constant (Ki) in test [8] is 25.1 µM (active); in test [9], 0.0794 µM (active); in test [10] it was 1.26 µM (active); in test [11], 31.6 µM (active); in [12] it was 79.4 µM (active); in test [13], 25.1 µM (active). In addition, the inhibitory constant (Ki) in [14] was 20 µM (active); in test [15], 12.6 µM (active); in test [16], 1.26 µM (active); in test [17], 0.501 µM (active); in test [18], 39.8 µM (active); in test [19], 20 µM (active). Also, the inhibitory constant (Ki) is 2 µM (active) in test [20]; > 39.8 µM (inactive) at Aurora kinase A; 0.251 µM (active) in test [21]; 0.501 µM (active) in test [22]; 7.94 µM (active) in test [23]; 15.8 µM (active) in test [24]. Besides, the inhibitory constant (Ki) in [25] was 63.1 µM (active); in test [26] it was 79.4 µM (active); in test [27], 39.8 µM (active); in test [28] it was 0.0398 µM (active); in test [29], 31.6 µM (active); in [30], 63.1 µM (active). Moreover, the inhibitory constant (Ki) is 20 µM (active) in test [31]; 63.1 µM (active) in test [32]; 6.31 µM (active) in test [33]; 20 µM (active) in test [34]; 1 µM (active) on Activin receptor type-1; 20 µM (active) in [35]. Moreover, the Ki in [36] is 31.6 µM (active).

In the case of `CCC(C#N)(c1ccccc1)c1c(Br)cnn(Cc2cccc3ccccc23)c1=O` (configuration not stated), the IC50 in [37] and in test [38] was 8.2 µM (active) throughout.

These data come from ChEMBL document CHEMBL1201862, “PubChem BioAssay data set” (2004).
